PubChem BioAssay AID1259407 (Chemical Carcinogenesis Research Information System (CCRIS), 2018)
The source made the active and inactive calls. How the calls were made is not given here.

Test system: CCRIS mutagenicity, Ames/micronucleus/aberration tests
Assay: CCRIS mutagenicity studies
[1] = Test System: AMES SALMONELLA TYPHIMURIUM, Strain/Indicator: TA98, Metabolic Activation: NONE, Method: PREINCUBATION
[2] = Test System: AMES SALMONELLA TYPHIMURIUM, Strain/Indicator: TA100, Metabolic Activation: NONE, Method: PREINCUBATION
[3] = Test System: AMES SALMONELLA TYPHIMURIUM, Strain/Indicator: TA1535, Metabolic Activation: NONE, Method: PREINCUBATION
[4] = Test System: AMES SALMONELLA TYPHIMURIUM, Strain/Indicator: TA1537, Metabolic Activation: NONE, Method: PREINCUBATION

Measured: mutagenic call

CC(=O)N[C@@H]1[C@@H](O[C@@H]2O[C@H](C(=O)O)[C@@H](O[C@@H]3O[C@H](CO)[C@@H](O)[C@H](O[C@@H]4O[C@H](C(=O)O)[C@@H](O)[C@H](O)[C@H]4O)[C@H]3NC(C)=O)[C@H](O)[C@H]2O)[C@H](O)[C@@H](CO)O[C@H]1O
inactive: Test System: AMES SALMONELLA TYPHIMURIUM, Strain/Indicator: TA98, Metabolic Activation: NONE inactive; negative | [1] inactive; negative | Test System: AMES SALMONELLA TYPHIMURIUM, Strain/Indicator: TA98, Metabolic Activation: RAT, LIVER, S-9, PHENOBARBITAL AND 5,6-BENZOFLAVONE, Method: PREINCUBATION inactive; negative | Test System: AMES SALMONELLA TYPHIMURIUM, Strain/Indicator: TA98, Metabolic Activation: RAT, LIVER, S-9, Method: PREINCUBATION inactive; negative | Test System: AMES SALMONELLA TYPHIMURIUM, Strain/Indicator: TA98, Metabolic Activation: S-9 inactive; negative | Test System: AMES SALMONELLA TYPHIMURIUM, Strain/Indicator: TA100, Metabolic Activation: NONE inactive; negative | [2] inactive; negative | Test System: AMES SALMONELLA TYPHIMURIUM, Strain/Indicator: TA100, Metabolic Activation: RAT, LIVER, S-9, PHENOBARBITAL AND 5,6-BENZOFLAVONE, Method: PREINCUBATION inactive; negative | Test System: AMES SALMONELLA TYPHIMURIUM, Strain/Indicator: TA100, Metabolic Activation: RAT, LIVER, S-9, Method: PREINCUBATION inactive; negative | Test System: AMES SALMONELLA TYPHIMURIUM, Strain/Indicator: TA100, Metabolic Activation: S-9 inactive; negative | Test System: AMES SALMONELLA TYPHIMURIUM, Strain/Indicator: TA1535, Metabolic Activation: NONE inactive; negative | [3] inactive; negative | Test System: AMES SALMONELLA TYPHIMURIUM, Strain/Indicator: TA1535, Metabolic Activation: RAT, LIVER, S-9, PHENOBARBITAL AND 5,6-BENZOFLAVONE, Method: PREINCUBATION inactive; negative | Test System: AMES SALMONELLA TYPHIMURIUM, Strain/Indicator: TA1535, Metabolic Activation: RAT, LIVER, S-9, Method: PREINCUBATION inactive; negative | Test System: AMES SALMONELLA TYPHIMURIUM, Strain/Indicator: TA1535, Metabolic Activation: S-9 inactive; negative | Test System: AMES SALMONELLA TYPHIMURIUM, Strain/Indicator: TA1537, Metabolic Activation: NONE inactive; negative | [4] inactive; negative | Test System: AMES SALMONELLA TYPHIMURIUM, Strain/Indicator: TA1537, Metabolic Activation: RAT, LIVER, S-9, PHENOBARBITAL AND 5,6-BENZOFLAVONE, Method: PREINCUBATION inactive; negative | Test System: AMES SALMONELLA TYPHIMURIUM, Strain/Indicator: TA1537, Metabolic Activation: RAT, LIVER, S-9, Method: PREINCUBATION inactive; negative | Test System: AMES SALMONELLA TYPHIMURIUM, Strain/Indicator: TA1537, Metabolic Activation: S-9 inactive; negative | Test System: E. COLI, Strain/Indicator: WP2 UVRA, Metabolic Activation: NONE inactive; negative | Test System: E. COLI, Strain/Indicator: WP2 UVRA, Metabolic Activation: S-9 inactive; negative | Test System: E.COLI, Strain/Indicator: WP2 UVRA, Metabolic Activation: NONE, Method: PREINCUBATION inactive; negative | Test System: E.COLI, Strain/Indicator: WP2 UVRA, Metabolic Activation: RAT, LIVER, S-9, PHENOBARBITAL AND 5,6-BENZOFLAVONE, Method: PREINCUBATION inactive; negative | Test System: E.COLI, Strain/Indicator: WP2 UVRA, Metabolic Activation: RAT, LIVER, S-9, Method: PREINCUBATION inactive; negative

CC(=O)Nc1cccc2ncccc12
inactive: [1] inactive; negative | Test System: AMES SALMONELLA TYPHIMURIUM, Strain/Indicator: TA98, Metabolic Activation: RAT, LIVER, S-9, KANECHLOR 500, Method: PREINCUBATION inactive; negative | [2] inactive; negative | Test System: AMES SALMONELLA TYPHIMURIUM, Strain/Indicator: TA100, Metabolic Activation: RAT, LIVER, S-9, KANECHLOR 500, Method: PREINCUBATION inactive; negative

N#CCO
inactive: Test System: AMES SALMONELLA TYPHIMURIUM, Strain/Indicator: TA97, Metabolic Activation: HAMSTER, LIVER, S-9, AROCLOR 1254 (10%), Method: PREINCUBATION inactive; negative | Test System: AMES SALMONELLA TYPHIMURIUM, Strain/Indicator: TA97, Metabolic Activation: HAMSTER, LIVER, S-9, AROCLOR 1254 (30%), Method: PREINCUBATION inactive; negative | Test System: AMES SALMONELLA TYPHIMURIUM, Strain/Indicator: TA97, Metabolic Activation: NONE, Method: PREINCUBATION inactive; negative | Test System: AMES SALMONELLA TYPHIMURIUM, Strain/Indicator: TA97, Metabolic Activation: RAT, LIVER, S-9, AROCLOR 1254 (10 OR 30%), Method: PREINCUBATION inactive; negative | Test System: AMES SALMONELLA TYPHIMURIUM, Strain/Indicator: TA98, Metabolic Activation: HAMSTER, LIVER, S-9, AROCLOR 1254 (10%), Method: PREINCUBATION inactive; negative | Test System: AMES SALMONELLA TYPHIMURIUM, Strain/Indicator: TA98, Metabolic Activation: HAMSTER, LIVER, S-9, AROCLOR 1254 (30%), Method: PREINCUBATION inactive; negative | [1] inactive; negative | Test System: AMES SALMONELLA TYPHIMURIUM, Strain/Indicator: TA98, Metabolic Activation: RAT, LIVER, S-9, AROCLOR 1254 (10%), Method: PREINCUBATION inactive; negative | Test System: AMES SALMONELLA TYPHIMURIUM, Strain/Indicator: TA98, Metabolic Activation: RAT, LIVER, S-9, AROCLOR 1254 (30%), Method: PREINCUBATION inactive; negative | Test System: AMES SALMONELLA TYPHIMURIUM, Strain/Indicator: TA100, Metabolic Activation: HAMSTER, LIVER, S-9, AROCLOR 1254 (10%), Method: PREINCUBATION inactive; negative | Test System: AMES SALMONELLA TYPHIMURIUM, Strain/Indicator: TA100, Metabolic Activation: HAMSTER, LIVER, S-9, AROCLOR 1254 (30%), Method: PREINCUBATION inactive; negative | [2] inactive; negative | Test System: AMES SALMONELLA TYPHIMURIUM, Strain/Indicator: TA100, Metabolic Activation: RAT, LIVER, S-9, AROCLOR 1254 (10%), Method: PREINCUBATION inactive; negative | Test System: AMES SALMONELLA TYPHIMURIUM, Strain/Indicator: TA100, Metabolic Activation: RAT, LIVER, S-9, AROCLOR 1254 (30%), Method: PREINCUBATION inactive; negative | Test System: AMES SALMONELLA TYPHIMURIUM, Strain/Indicator: TA1535, Metabolic Activation: HAMSTER, LIVER, S-9, AROCLOR 1254 (10%), Method: PREINCUBATION inactive; negative | Test System: AMES SALMONELLA TYPHIMURIUM, Strain/Indicator: TA1535, Metabolic Activation: HAMSTER, LIVER, S-9, AROCLOR 1254 (30%), Method: PREINCUBATION inactive; negative | [3] inactive; negative | Test System: AMES SALMONELLA TYPHIMURIUM, Strain/Indicator: TA1535, Metabolic Activation: RAT, LIVER, S-9, AROCLOR 1254 (10%), Method: PREINCUBATION inactive; negative | Test System: AMES SALMONELLA TYPHIMURIUM, Strain/Indicator: TA1535, Metabolic Activation: RAT, LIVER, S-9, AROCLOR 1254 (30%), Method: PREINCUBATION inactive; negative

CC(C)C(=O)OCC(C)(C)C(O)C(C)C (stereo not drawn)
inactive: [1] inactive; negative | Test System: AMES SALMONELLA TYPHIMURIUM, Strain/Indicator: TA98, Metabolic Activation: RAT LIVER S-9, PHENOBARBITAL AND BETA-NAPHTHOFLAVONE, Method: PREINCUBATION inactive; negative | [2] inactive; negative | Test System: AMES SALMONELLA TYPHIMURIUM, Strain/Indicator: TA100, Metabolic Activation: RAT LIVER S-9, PHENOBARBITAL AND BETA-NAPHTHOFLAVONE, Method: PREINCUBATION inactive; negative | [3] inactive; negative | Test System: AMES SALMONELLA TYPHIMURIUM, Strain/Indicator: TA1535, Metabolic Activation: RAT LIVER S-9, PHENOBARBITAL AND BETA-NAPHTHOFLAVONE, Method: PREINCUBATION inactive; negative | [4] inactive; negative | Test System: AMES SALMONELLA TYPHIMURIUM, Strain/Indicator: TA1537, Metabolic Activation: RAT LIVER S-9, PHENOBARBITAL AND BETA-NAPHTHOFLAVONE, Method: PREINCUBATION inactive; negative | Test System: E.COLI, Strain/Indicator: WP2UVRA/PKM101, Metabolic Activation: NONE, Method: PREINCUBATION inactive; negative | Test System: E.COLI, Strain/Indicator: WP2UVRA/PKM101, Metabolic Activation: RAT LIVER S-9, PHENOBARBITAL AND BETA-NAPHTHOFLAVONE, Method: PREINCUBATION inactive; negative
